How the values were obtained:
[1] = biological target: T1, Signal transducer and activator of transcription 3 (Homo sapiens, UniProt P40763); test: Inhibition of SH2 domain of STAT3 (unknown origin) using (FITC)-GpYLPQTV as substrate preincubated for 15 mins before substrate addition measured after 90 mins by alphascreen based assay
[2] = biological target: T1, Signal transducer and activator of transcription 3; test: Inhibition of STAT3 in human HCT116 cells at 5 uM after 24 hrs by dual-light luciferase reporter gene assay; type: cell-based; details: HCT-116
RPMI-8226 = test: Cytotoxicity against human RPMI8226 cells after 48 hrs by sulforhodamine B assay; type: functional; details: RPMI-8226, 48 h
A549 = test: Cytotoxicity against human A549 cells after 48 hrs by sulforhodamine B assay; type: functional; details: A549, 48 h
HOP-62 = test: Cytotoxicity against human HOP62 cells after 48 hrs by sulforhodamine B assay; type: functional; details: HOP-62, 48 h
NCI-H23 = test: Cytotoxicity against human NCI-H23 cells after 48 hrs by sulforhodamine B assay; type: functional; details: NCI-H23, 48 h
NCI-H460 = test: Cytotoxicity against human NCI-H460 cells after 48 hrs by sulforhodamine B assay; type: functional; details: NCI-H460, 48 h
NCI-H522 = test: Cytotoxicity against human NCI-H522 cells after 48 hrs by sulforhodamine B assay; type: functional; details: NCI-H522, 48 h
HCC 2998 = test: Cytotoxicity against human HCC2998 cells after 48 hrs by sulforhodamine B assay; type: functional; details: HCC 2998, 48 h
HCT-116 = test: Cytotoxicity against human HCT116 cells after 48 hrs by sulforhodamine B assay; type: functional; details: HCT-116, 48 h
SF-268 = test: Cytotoxicity against human SF268 cells after 48 hrs by sulforhodamine B assay; type: functional; details: SF-268, 48 h
SF-295 = test: Cytotoxicity against human SF295 cells after 48 hrs by sulforhodamine B assay; type: functional; details: SF-295, 48 h
SF-539 = test: Cytotoxicity against human SF539 cells after 48 hrs by sulforhodamine B assay; type: functional; details: SF-539, 48 h
Malme-3M = test: Cytotoxicity against human MALME-3M cells after 48 hrs by sulforhodamine B assay; type: functional
M14 = test: Cytotoxicity against human M14 cells after 48 hrs by sulforhodamine B assay; type: functional; details: M14, 48 h
MDA-MB-435 = test: Cytotoxicity against human MDA-MB-435 cells after 48 hrs by sulforhodamine B assay; type: functional; details: MDA-MB-435, 48 h
[3] = Cytotoxicity against human OVCAR4 cells after 48 hrs by sulforhodamine B assay; type: functional; details: OVCAR-4, 48 h
[4] = Cytotoxicity against human OVCAR8 cells after 48 hrs by sulforhodamine B assay; type: functional; details: OVCAR-8, 48 h
[5] = Cytotoxicity against human NCI-ADR-RES cells after 48 hrs by sulforhodamine B assay; type: functional
SK-OV-3 = test: Cytotoxicity against human SKOV3 cells after 48 hrs by sulforhodamine B assay; type: functional; details: SK-OV-3, 48 h
CAKI-1 = test: Cytotoxicity against human CAKI-1 cells after 48 hrs by sulforhodamine B assay; type: functional; details: CAKI-1, 48 h
DU-145 = test: Cytotoxicity against human DU145 cells after 48 hrs by sulforhodamine B assay; type: functional; details: DU-145, 48 h
[6] = read-out: LC50 (the source's name)
[7] = read-out: pLC50 (the source's name) (converted)

T1 sequence (P40763 whole entry, the tested form may be a part): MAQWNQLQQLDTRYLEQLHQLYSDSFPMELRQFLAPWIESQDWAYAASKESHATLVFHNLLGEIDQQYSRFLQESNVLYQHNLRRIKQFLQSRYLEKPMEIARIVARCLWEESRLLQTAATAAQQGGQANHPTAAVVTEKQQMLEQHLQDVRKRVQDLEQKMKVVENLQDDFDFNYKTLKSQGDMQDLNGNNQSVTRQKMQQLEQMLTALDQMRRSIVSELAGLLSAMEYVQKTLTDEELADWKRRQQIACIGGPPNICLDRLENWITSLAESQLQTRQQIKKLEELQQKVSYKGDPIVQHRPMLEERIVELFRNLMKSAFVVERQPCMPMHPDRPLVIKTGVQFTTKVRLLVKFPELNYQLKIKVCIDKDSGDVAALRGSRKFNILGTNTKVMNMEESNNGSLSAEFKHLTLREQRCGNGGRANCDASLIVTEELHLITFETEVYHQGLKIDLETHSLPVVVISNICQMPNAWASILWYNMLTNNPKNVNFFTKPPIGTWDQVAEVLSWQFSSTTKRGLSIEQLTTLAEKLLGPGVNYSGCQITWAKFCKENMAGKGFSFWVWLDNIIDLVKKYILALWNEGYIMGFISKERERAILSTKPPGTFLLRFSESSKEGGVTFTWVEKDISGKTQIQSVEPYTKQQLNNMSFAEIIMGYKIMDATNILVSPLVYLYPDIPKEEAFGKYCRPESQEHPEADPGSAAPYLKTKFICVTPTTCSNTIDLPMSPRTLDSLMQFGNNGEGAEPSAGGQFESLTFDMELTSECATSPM

Q: For `O=C(Nc1nonc1-c1ccc(Cl)cc1)c1ccc(C(F)(F)F)cc1`, which IC50 [1] is on record?
A: 17.7 µM

Q: And the inhibition [1]?
A: Dose-dependent effect

Q: And the inhibition [2]?
A: 20%

Q: And the GI50 (RPMI-8226; read-out: GI50)?
A: 1.05 µM

Q: What about the CC50 (RPMI-8226; [6]) of the same molecule?
A: > 100 µM

Q: What about the TGI (RPMI-8226; read-out: TGI) of the same molecule?
A: 5.89 µM

Q: And the GI50 (RPMI-8226; read-out: pGI50 (converted))?
A: 1.05 µM

Q: What about the CC50 (RPMI-8226; [7]) of the same molecule?
A: > 100 µM

Q: And the TGI (RPMI-8226; read-out: pTGI (converted))?
A: 5.89 µM

Q: What about the GI50 (A549; read-out: GI50) of the same molecule?
A: 2.53 µM

Q: And the CC50 (A549; [6])?
A: > 100 µM

Q: What about the TGI (A549; read-out: TGI) of the same molecule?
A: > 100 µM

Q: What about the GI50 (A549; read-out: pGI50 (converted)) of the same molecule?
A: 2.51 µM

Q: And the CC50 (A549; [7])?
A: > 100 µM

Q: What about the TGI (A549; read-out: pTGI) of the same molecule?
A: > 100 µM

Q: And the GI50 (HOP-62; read-out: GI50)?
A: 2.93 µM

Q: What about the CC50 (HOP-62; [6]) of the same molecule?
A: > 100 µM

Q: And the TGI (HOP-62; read-out: TGI)?
A: 8.74 µM

Q: What about the GI50 (HOP-62; read-out: pGI50 (converted)) of the same molecule?
A: 2.95 µM

Q: And the CC50 (HOP-62; [7])?
A: > 100 µM

Q: What about the TGI (HOP-62; read-out: pTGI (converted)) of the same molecule?
A: 8.71 µM

Q: And the GI50 (NCI-H23; read-out: GI50)?
A: 1.89 µM

Q: And the CC50 (NCI-H23; [6])?
A: > 100 µM

Q: What about the TGI (NCI-H23; read-out: TGI) of the same molecule?
A: 7.94 µM

Q: And the GI50 (NCI-H23; read-out: pGI50 (converted))?
A: 1.91 µM

Q: What about the CC50 (NCI-H23; [7]) of the same molecule?
A: > 100 µM

Q: What about the TGI (NCI-H23; read-out: pTGI (converted)) of the same molecule?
A: 7.94 µM

Q: And the GI50 (NCI-H460; read-out: GI50)?
A: 0.629 µM

Q: And the CC50 (NCI-H460; [6])?
A: > 100 µM

Q: And the GI50 (NCI-H460; read-out: pGI50 (converted))?
A: 0.631 µM

Q: And the CC50 (NCI-H460; [7])?
A: > 100 µM

Q: And the GI50 (NCI-H522; read-out: GI50)?
A: 2.07 µM

Q: And the CC50 (NCI-H522; [6])?
A: > 100 µM

Q: And the TGI (NCI-H522; read-out: TGI)?
A: 7.12 µM

Q: What about the GI50 (NCI-H522; read-out: pGI50 (converted)) of the same molecule?
A: 2.09 µM

Q: What about the CC50 (NCI-H522; [7]) of the same molecule?
A: > 100 µM

Q: What about the TGI (NCI-H522; read-out: pTGI (converted)) of the same molecule?
A: 7.08 µM

Q: And the GI50 (HCC 2998; read-out: GI50)?
A: 3.63 µM

Q: And the CC50 (HCC 2998; [6])?
A: > 100 µM

Q: What about the TGI (HCC 2998; read-out: TGI) of the same molecule?
A: > 100 µM

Q: What about the GI50 (HCC 2998; read-out: pGI50 (converted)) of the same molecule?
A: 3.63 µM

Q: What about the CC50 (HCC 2998; [7]) of the same molecule?
A: > 100 µM

Q: And the TGI (HCC 2998; read-out: pTGI)?
A: > 100 µM

Q: And the GI50 (HCT-116; read-out: GI50)?
A: 2.17 µM

Q: What about the CC50 (HCT-116; [6]) of the same molecule?
A: > 100 µM

Q: And the GI50 (HCT-116; read-out: pGI50 (converted))?
A: 2.19 µM

Q: And the CC50 (HCT-116; [7])?
A: > 100 µM

Q: What about the GI50 (SF-268; read-out: GI50) of the same molecule?
A: 1.81 µM

Q: What about the LC50 (SF-268; read-out: LC50) of the same molecule?
A: > 100 µM

Q: What about the TGI (SF-268; read-out: TGI) of the same molecule?
A: > 100 µM

Q: What about the GI50 (SF-268; read-out: pGI50 (converted)) of the same molecule?
A: 1.82 µM

Q: And the LC50 (SF-268; read-out: pLC50 (converted))?
A: > 100 µM

Q: And the TGI (SF-268; read-out: pTGI)?
A: > 100 µM

Q: What about the GI50 (SF-295; read-out: GI50) of the same molecule?
A: 1.02 µM

Q: What about the CC50 (SF-295; [6]) of the same molecule?
A: 43.4 µM

Q: What about the TGI (SF-295; read-out: TGI) of the same molecule?
A: 3.72 µM

Q: And the GI50 (SF-295; read-out: pGI50 (converted))?
A: 1.02 µM

Q: What about the CC50 (SF-295; [7]) of the same molecule?
A: > 100 µM

Q: And the TGI (SF-295; read-out: pTGI (converted))?
A: 3.72 µM

Q: What about the GI50 (SF-539; read-out: GI50) of the same molecule?
A: 3.68 µM

Q: And the CC50 (SF-539; [6])?
A: > 100 µM

Q: And the TGI (SF-539; read-out: TGI)?
A: 17.1 µM

Q: And the GI50 (SF-539; read-out: pGI50 (converted))?
A: 3.72 µM

Q: What about the CC50 (SF-539; [7]) of the same molecule?
A: > 100 µM

Q: And the TGI (SF-539; read-out: pTGI (converted))?
A: 17 µM

Q: What about the GI50 (Malme-3M; read-out: GI50) of the same molecule?
A: 1.52 µM

Q: And the LC50 (Malme-3M; read-out: LC50)?
A: > 100 µM

Q: What about the TGI (Malme-3M; read-out: TGI) of the same molecule?
A: 21.8 µM

Q: What about the GI50 (Malme-3M; read-out: pGI50 (converted)) of the same molecule?
A: 1.51 µM

Q: And the LC50 (Malme-3M; read-out: pLC50 (converted))?
A: > 100 µM

Q: And the TGI (Malme-3M; read-out: pTGI (converted))?
A: 21.9 µM

Q: And the GI50 (M14; read-out: GI50)?
A: 2.04 µM

Q: What about the CC50 (M14; [6]) of the same molecule?
A: > 100 µM

Q: And the TGI (M14; read-out: TGI)?
A: > 100 µM

Q: What about the GI50 (M14; read-out: pGI50 (converted)) of the same molecule?
A: 2.04 µM

Q: And the CC50 (M14; [7])?
A: > 100 µM

Q: What about the TGI (M14; read-out: pTGI) of the same molecule?
A: > 100 µM

Q: What about the GI50 (MDA-MB-435; read-out: GI50) of the same molecule?
A: 2.15 µM

Q: And the LC50 (MDA-MB-435; read-out: LC50)?
A: > 100 µM

Q: And the TGI (MDA-MB-435; read-out: TGI)?
A: > 100 µM

Q: And the GI50 (MDA-MB-435; read-out: pGI50 (converted))?
A: 2.14 µM

Q: And the LC50 (MDA-MB-435; read-out: pLC50 (converted))?
A: > 100 µM

Q: What about the TGI (MDA-MB-435; read-out: pTGI) of the same molecule?
A: > 100 µM

Q: What about the GI50 ([3]; read-out: GI50) of the same molecule?
A: 1.83 µM

Q: And the TGI ([3]; read-out: TGI)?
A: 4.21 µM

Q: And the GI50 ([3]; read-out: pGI50 (converted))?
A: 1.82 µM

Q: And the TGI ([3]; read-out: pTGI (converted))?
A: 4.17 µM

Q: And the GI50 ([4]; read-out: GI50)?
A: 2.87 µM

Q: What about the CC50 [4, 6] of the same molecule?
A: > 100 µM

Q: And the TGI ([4]; read-out: TGI)?
A: > 100 µM

Q: What about the GI50 ([4]; read-out: pGI50 (converted)) of the same molecule?
A: 2.88 µM

Q: And the CC50 [4, 7]?
A: > 100 µM

Q: What about the TGI ([4]; read-out: pTGI) of the same molecule?
A: > 100 µM

Q: What about the GI50 ([5]; read-out: GI50) of the same molecule?
A: 2.66 µM

Q: And the CC50 [5, 6]?
A: > 100 µM

Q: What about the GI50 ([5]; read-out: pGI50 (converted)) of the same molecule?
A: 2.63 µM

Q: What about the CC50 [5, 7] of the same molecule?
A: > 100 µM

Q: And the GI50 (SK-OV-3; read-out: GI50)?
A: 2.92 µM

Q: What about the CC50 (SK-OV-3; [6]) of the same molecule?
A: > 100 µM

Q: And the TGI (SK-OV-3; read-out: TGI)?
A: 7.6 µM

Q: And the GI50 (SK-OV-3; read-out: pGI50 (converted))?
A: 2.88 µM

Q: And the CC50 (SK-OV-3; [7])?
A: > 100 µM

Q: And the TGI (SK-OV-3; read-out: pTGI (converted))?
A: 7.59 µM

Q: And the GI50 (CAKI-1; read-out: GI50)?
A: 1.9 µM

Q: What about the CC50 (CAKI-1; [6]) of the same molecule?
A: > 100 µM

Q: What about the TGI (CAKI-1; read-out: TGI) of the same molecule?
A: 7.59 µM

Q: What about the GI50 (CAKI-1; read-out: pGI50 (converted)) of the same molecule?
A: 1.91 µM

Q: And the CC50 (CAKI-1; [7])?
A: > 100 µM

Q: What about the TGI (CAKI-1; read-out: pTGI (converted)) of the same molecule?
A: 7.59 µM

Q: What about the GI50 (DU-145; read-out: GI50) of the same molecule?
A: 3.48 µM

Q: What about the CC50 (DU-145; [6]) of the same molecule?
A: > 100 µM

Q: And the TGI (DU-145; read-out: TGI)?
A: > 100 µM

Q: And the GI50 (DU-145; read-out: pGI50 (converted))?
A: 3.47 µM

Q: And the CC50 (DU-145; [7])?
A: > 100 µM

Q: And the TGI (DU-145; read-out: pTGI)?
A: > 100 µM
